We go through 15 compounds from patent publication US20040171680A1, “Treating Syndrome X with substituted tetralins and indanes” (priority 2002, published 2004).

Where two headings read alike, the source gives them in different places. A value given as a limit tells only on which side of the number the result lay.

One test addresses T1, PPARα (Rattus norvegicus, UniProt P37230).
T1 construct: H4IIE rat hepatoma cell line was obtained from ATCC; host or cells: H4IIE rat hepatoma cells
T1 sequence (P37230 1-468): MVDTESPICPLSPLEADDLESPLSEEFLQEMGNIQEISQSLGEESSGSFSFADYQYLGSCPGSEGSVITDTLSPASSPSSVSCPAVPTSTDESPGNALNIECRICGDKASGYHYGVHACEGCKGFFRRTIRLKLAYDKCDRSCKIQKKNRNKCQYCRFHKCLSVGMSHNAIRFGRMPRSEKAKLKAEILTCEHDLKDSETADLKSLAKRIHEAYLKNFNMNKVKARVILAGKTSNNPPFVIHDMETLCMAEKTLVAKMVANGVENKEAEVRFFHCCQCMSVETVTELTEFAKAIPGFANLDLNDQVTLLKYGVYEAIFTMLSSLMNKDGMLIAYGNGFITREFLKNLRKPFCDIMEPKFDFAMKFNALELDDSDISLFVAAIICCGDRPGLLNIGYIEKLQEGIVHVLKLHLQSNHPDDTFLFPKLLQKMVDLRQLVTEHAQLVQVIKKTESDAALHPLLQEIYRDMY
Briefly: HD bDNA Assay (HD gene induction). The class given is cell-based. The method, then: HD bDNA Assay H4IIE rat hepatoma cell line was obtained from ATCC. Cells were cultured in 175 cm^2 tissue culture flask or seeded in 96-well plate with (high serum content, 10% fetal bovine serum and 10% calf serum) culture medium and maintained at 37° C. and 5% CO2 throughout study. Twenty-four hours after the initial seeding of the 96-well plate by hand (approximate 100,000/well), the HD gene induction assay was initiated. Media was removed and replaced with 100 ul of low serum culture media (5% charcoal/dextran treated calf serum) containing vehicle (DMSO) or test compounds or standard. Cells returned to incubator for 24 hours culture. At the termination of the challenge, 50 ul lysis buffer with HD gene specific CE, LE, BL probes was added directly into each well to initiate the bDNA HD mRNA assay. The branched DNA assay was performed according to the manufacturer's protocol (Bayer Diagnostics; Emeryville. Calif.). At the end of the assay, the luminescence was quantitated in Dynex MLX microtiter plate luminometer. EC50's were determined by non-linear regression with a sigmoidal fit utilizing Graphpad Prism.

In the next test the target is T2, PPARδ (Homo sapiens, UniProt Q03181).
T2 construct: a Gal4-Luciferase reporter is co-transfected
T2 sequence (Q03181 171-441 limits assumed): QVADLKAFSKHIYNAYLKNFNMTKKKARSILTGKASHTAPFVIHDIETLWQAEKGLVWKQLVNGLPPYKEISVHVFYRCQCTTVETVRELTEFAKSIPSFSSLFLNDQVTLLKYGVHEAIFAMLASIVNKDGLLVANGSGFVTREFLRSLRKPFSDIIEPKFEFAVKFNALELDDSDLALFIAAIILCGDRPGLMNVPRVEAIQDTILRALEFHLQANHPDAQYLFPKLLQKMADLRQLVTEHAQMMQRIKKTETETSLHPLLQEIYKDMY
Briefly: Transfection Assay for PPARδ Receptors (PPAR-Gal4 / Gal4-Luciferase reporter in HEK293 cells). The class given is cell-based. To be noted: for PPARδ FI: fold induction, PPARδ standard: FI = 36.1; for EC50: values in square brackets. The method, then:
Transfection Assay for PPARδ Receptors
HEK293 cells were grown in DMEM/F-12 Media supplemented with 10% FBS and glutamine (GIBCOBRL). The cells were co-transfected with DNA for PPAR-Gal4 receptor and Gal4-Luciferase Reporter using the DMRIE-C Reagent. On the following day, the DNA-containing medium were replaced with 5% Charcoal treated FBS growth medium. After six hours, cells were seeded in 96 well plate and incubated at 37° C. in CO2 incubator overnight. Cells were challenged by test compounds and incubated for 24 hours at 37° C. in 5% CO2 incubator. Luciferase activity was assayed using the Steady-Glo Luciferase Assay Kit from Promega. DMRIE-C Reagent was purchased from GIBCO Cat. No.10459-014. OPTI-MEM I Reduced Serum Medium was purchased from GIBCO Cat. No. 31985. Steady-Glo Luciferase Assay Kit was obtained from Promega Part# E254B.
Background: Reporter assays use an easily measured gene product as a stand-in for the process of interest.

Where [1] appears, read: H4IIE rat hepatoma cells, 24 hours, read-out: PPARα EC50.
[2] abbreviates: in section F, target not named there, values match the PPARα column, read-out: EC50.

As to `CCN(C(=O)Nc1cccc(OC(F)(F)F)c1)C1Cc2ccc(SC(C)(C)C(=O)O)cc2C1` (stereo not drawn) [Example 26, 2-{2-[1-Ethyl-3-(3-trifluoromethoxyphenyl)ureido]indan-5-ylsulfanyl}-2-methylpropionic acid], the EC50 on PPARα (setting [1]) stood at 130 nM. The “PPARδ FI” value on PPARδ amounted to 2.1.
Take `CC(C)(Sc1ccc2c(c1)CC(N(CCCC1CCCC1)C(=O)Nc1ccc(OC(F)(F)F)cc1)C2)C(=O)O` (stereo not drawn) [Example 28, 2-{2-[1-(3-Cyclopentylpropyl)-3-(4-trifluoromethoxyphenyl)ureido]indan-5-ylsulfanyl}-2-methylpropionic acid]: the EC50 on PPARα (setting [1]) amounted to 323 nM. Moreover, on PPARδ, the “PPARδ FI” value came out at 8.2.
For `CCCN(C(=O)Nc1ccc(OC)cc1)C1Cc2ccc(SC(C)(C)C(=O)O)cc2C1` (stereo not drawn) [Example 32, 2-{2-[3-(4-Methoxyphenyl)-1-propylureido]indan-5-ylsulfanyl}-2-methylpropionic acid], in that order: 497 nM and 1.5.
For `CCCN(C(=O)Nc1cc(C)cc(C)c1)C1Cc2ccc(SC(C)(C)C(=O)O)cc2C1` (stereo not drawn) [Example 33, 2-{2-[3-(3,5-Dimethylphenyl)-1-propylureido]indan-5-ylsulfanyl}-2-methylpropionic acid], in that order: 537 nM and 0.8.
Taken in the same sequence, the figures for `CCCN(C(=O)Nc1ccc(C(F)(F)F)cc1)C1Cc2ccc(SC(C)(C)C(=O)O)cc2C1` (stereo not drawn) [Example 35, 2-Methyl-2-{2-[1-propyl-3-(4-trifluoromethylphenyl)ureido]indan-5-ylsulfanyl}-propionic acid] were 772 nM and 5.6.
Regarding `CC(C)(Sc1ccc2c(c1)CC(N(CCCC1CCCC1)C(=O)Nc1ccccc1)C2)C(=O)O` (stereo not drawn) [Example 37, 2-{2-[1-(3-Cyclopentylpropyl)-3-phenylureido]indan-5-ylsulfanyl}-2-methylpropionic acid], the EC50 on PPARα (setting [1]) was found to be 838 nM. At PPARδ, the “PPARδ FI” value is recorded as 1.9.
For `CCCCCN(C(=O)Nc1ccc2ccccc2c1)C1Cc2ccc(SC(C)(C)C(=O)O)cc2C1` (stereo not drawn) [Example 39, 2-Methyl-2-[2-(3-naphthalen-2-yl-1-pentylureido)indan-5-ylsulfanyl]propionic acid], in that order: 1000 nM and 9.3.
`CCCN(C(=O)Nc1ccc(OC(F)(F)F)cc1)C1CCc2ccc(SC(C)(C)C(=O)O)cc2C1` (stereo not drawn) [Example 46, 2-Methyl-2-{7-[1-propyl-3-(4-trifluoromethoxyphenyl)ureido}-5,6,7,8-tetrahydronaphthalen-2-ylsulfanyl}propionic acid]: the EC50 on PPARα (setting [1]) is 1390 nM. Besides, the “PPARδ FI” value at PPARδ is recorded as 6.0.
As to `CCN(C(=O)Nc1ccc(OC(F)(F)F)cc1)C1CCc2cc(SC(C)(C)C(=O)O)c(OC)cc2C1` (stereo not drawn) [Example 47, 2-{6-[1-Ethyl-3-(4-trifluoromethoxyphenyl)ureido]-3-methoxy-5,6,7,8-tetrahydronaphthalen-2-ylsulfanyl}-2-methylpropionic acid], the EC50 at PPARα (setting [2]) was 45 nM; on PPARδ, more than 3000 nM.
Turning to `CCN(C(=O)Nc1ccc(OC(F)(F)F)cc1)C1CCc2cc(OC(C)(C)C(=O)O)ccc2C1` (stereo not drawn) [Example 48, 2-{6-[1-Ethyl-3-(4-trifluoromethoxyphenyl)ureido]-5,6,7,8-tetrahydronaphthalen-2-yloxy}-2-methylpropionic acid], the EC50 on PPARα (setting [1]) is 14 nM; on PPARδ, more than 3000 nM.
For the compound `CCN(C(=O)Nc1ccc(OC(F)(F)F)cc1)C1CCc2cc(SC(C)(C)C(=O)O)c(Cl)cc2C1` (stereo not drawn) [Example 51, 2-{6-[1-Ethyl-3-(4-trifluoromethoxyphenyl)ureido]-3-chloro-5,6,7,8-tetrahydronaphthalen-2-ylsulfanyl}-2-methylpropionic acid], the figures for the EC50 on PPARα (setting [2]) and on PPARδ were 27 nM and more than 10000 nM, respectively.
On to `CCN(C(=O)Nc1ccc(OC(F)(F)F)cc1)C1CCc2cc(SC(C)(C)C(=O)O)c(Br)cc2C1` (stereo not drawn) [Example 52, 2-{6-[1-Ethyl-3-(4-trifluoromethoxyphenyl)ureido]-3-bromo-5,6,7,8-tetrahydronaphthalen-2-ylsulfanyl}-2-methylpropionic acid], for which the EC50 on PPARα (setting [2]) is 17 nM; on PPARδ it was more than 3000 nM.
For `CCN(C(=O)Nc1ccc(OC(F)(F)F)cc1)C1CCc2cc(SC(C)(C)C(=O)O)c(C)cc2C1` (stereo not drawn) [Example 53, 2-{6-[1-Ethyl-3-(4-trifluoromethoxyphenyl)ureido]-3-methyl-5,6,7,8-tetrahydronaphthalen-2-ylsulfanyl}-2-methylpropionic acid], the values for the EC50 at PPARα (setting [2]) and on PPARδ were 42 nM and 873 nM, respectively.
For `CCN(C(=O)Nc1ccc(OC(F)(F)F)cc1)C1CCc2cc(SC(C)(C)C(=O)O)c(OC(F)(F)F)cc2C1` (stereo not drawn) [Example 54, 2-{6-[1-Ethyl-3-(4-trifluoromethoxyphenyl)ureido]-3-trifluoromethoxy-5,6,7,8-tetrahydronaphthalen-2-ylsulfanyl}-2-methylpropionic acid], in that order: 131 nM and more than 3000 nM.
Take `CCN(C(=O)Nc1ccc(OC(F)(F)F)cc1)C1CCc2cc(SC(C)(C)C(=O)O)c(-c3ccccc3)cc2C1` (stereo not drawn) [Example 55, 2-{6-[1-Ethyl-3-(4-trifluoromethoxyphenyl)ureido]-3-phenyl-5,6,7,8-tetrahydronaphthalen-2-ylsulfanyl}-2-methylpropionic acid]: the EC50 turned out to be 545 nM at PPARα (setting [2]) and 1720 nM on PPARδ.

As a reminder, the EC50 is the concentration at which the effect is half-maximal.
